Measured values published in PubChem BioAssay AID2060501 (Molecular Pharmacology Branch, DTP, NCI, 2025).
Each block holds one molecule with its values, some of them ahead of it.

System: 282377-053-R-J1-PDC complex spheroids, viability
Assay: Anticancer human tumor 282377-053-R-J1-PDC patient-derived colon adenocarcinoma cell line growth inhibition [GQUAD]
Conditions: for IC50: curve of first compound; for viability, T/C: stronger effect = lower value
Description: DNA G-quadruplex Stabilizer Agents in Combinations in Complex Spheroids
A high-throughput screen of multi-cell type tumor spheroids was designed to identify active combinations of DNA G-quadruplex stabilizer agents and targeted small molecules. Complex spheroids include a stromal component modeled by human endothelial cells (HUVEC) and fibroblasts modeled by human mesenchymal stem cells (MSCs). The concentration ranges selected for each drug and investigational agent were based upon clinically achievable concentrations if the clinical Cmax of the agent was known.
Compounds. The drugs and investigational agents: pidnarulex (CX-5461; NSC782164), APTO-253 (NSC789042), BRACO-19 (NSC847499), peposertib (NSC802822), ceralasertib (NSC780249), elimusertib (NSC800525), camonsertib (NSC841442), AZD-1390 (NSC803789), olaparib (NSC753686), talazoparib (NSC767125), ART-558 (NSC835418), sotorasib (NSC818433), MRTX-1133 (NSC836407), SN-38 (NSC673596), topotecan (NSC609699), etoposide (NSC141540), doxorubicin (NSC123127), gemcitabine (NSC613327), 5-fluorouracil (NSC19893), paclitaxel (NSC125973), vemurafenib (NSC761431), panobinostat (NSC761190), R-306465 (JNJ-16241199; NSC773264), adavosertib (NSC754352), TP-3654 (NSC805149), carboplatin (NSC241240), KSQ-4279 (NSC840948), and staurosporine (NSC755774) were obtained from the National Cancer Institute (NCI) Developmental Therapeutics Program Chemical Repository (34). The FDA-approved anticancer drug set is available from the NCI Developmental Therapeutics Program. […] The stock solutions were prepared in dimethyl sulfoxide (DMSO, Sigma-Aldrich, St. Louis, MO, cat. D2650) at 800-fold the tested concentration and stored at -70 degrees C prior to their use. All drugs and investigational agents were tested over a range starting from a high concentration at or near the clinical Cmax and decreasing in half-log increments. If the clinical Cmax for an agent had not been determined, the highest concentration tested was 10 microM.
2.3 Cell Culture. All cells were maintained in an incubator at 37 degrees C and 5% CO2 with 95% humidity. The PDC lines were cultured according to standard operating procedures established by the NCI PDMR. All PDCs were thawed and cultured in Matrigel-coated flasks prepared with a working solution of 1X Ham's F-12 nutrient mix, without supplementation (Invitrogen, cat. 11765054), 100 U/mL penicillin-streptomycin (Invitrogen, cat. 15140122), and 2.5% Matrigel (Corning Inc., cat. 354248) for the first three passages. The 857933-349-R-J2-PDC line was cultured in 6C/Colon 1B media, which includes advanced DMEM/F-12 (Thermo Fisher Scientific, cat. 12634028), 10 mM HEPES (Thermo Fisher Scientific, cat. 15630080), 1X GlutaMAX supplement (Thermo Fisher Scientific, cat. 35050061), 0.1 mg/mL primocin (InvivoGen, cat. ant-pm-2), 10% defined fetal bovine serum, heat inactivated (HyClone Laboratories Inc., cat. SH30070.03HI), 50% L-WRN conditioned media (ATCC, cat. CRL-3276), 1.25 mM N-Acetyl-L-cysteine (Sigma-Aldrich, cat. A9165), 10 mM nicotinamide (Sigma-Aldrich, cat. N0636), 1X B-27 supplement (Thermo Fisher Scientific, cat. 17504044), 1X N-2 supplement (Thermo Fisher Scientific, cat. 17502048), 10 microM Y-27632 dihydrochloride (Tocris Bioscience, cat. 1254), and 50 ng/mL human EGF recombinant protein (Thermo Fisher Scientific, cat. PHG0311). The 485176-168-R4-J1-PDC line was cultured in Panc media, which includes all 6C/Colon 1B media components plus 100 ng/mL human FGF-10 (Thermo Fisher Scientific, cat. 100-26), 500 nM SB-431542 (Selleckchem, cat. S1067), and gastrin (Tocris, cat. 3006).
[…]

[1] = second compound 0.0316 µM, first compound 0.0316 µM
[2] = second compound 0.0316 µM, first compound 0.316 µM
[3] = second compound 0.1 µM, first compound 0.0316 µM
[4] = second compound 0.1 µM, first compound 0.316 µM
[5] = second compound 0.316 µM, first compound 0.0316 µM
[6] = second compound 0.316 µM, first compound 0.316 µM
[7] = second compound 1 µM, first compound 0.0316 µM
[8] = second compound 1 µM, first compound 0.316 µM
[9] = second compound 3.16 µM, first compound 0.0316 µM
[10] = second compound 3.16 µM, first compound 0.316 µM
[11] = second compound 10 µM, first compound 0.0316 µM
[12] = second compound 10 µM, first compound 0.316 µM
[13] = second compound 0.0316 µM, first compound 0.000999 µM
[14] = second compound 0.0316 µM, first compound 0.00316 µM
[15] = second compound 0.0316 µM, first compound 0.00999 µM
[16] = second compound 0.0316 µM, first compound 0.0999 µM
[17] = second compound 0.1 µM, first compound 0.000999 µM
[18] = second compound 0.1 µM, first compound 0.00316 µM
[19] = second compound 0.1 µM, first compound 0.00999 µM
[20] = second compound 0.1 µM, first compound 0.0999 µM
[21] = second compound 0.316 µM, first compound 0.000999 µM
[22] = second compound 0.316 µM, first compound 0.00316 µM
[23] = second compound 0.316 µM, first compound 0.00999 µM
[24] = second compound 0.316 µM, first compound 0.0999 µM
[25] = second compound 1 µM, first compound 0.000999 µM
[26] = second compound 1 µM, first compound 0.00316 µM
[27] = second compound 1 µM, first compound 0.00999 µM
[28] = second compound 1 µM, first compound 0.0999 µM
[29] = second compound 3.16 µM, first compound 0.000999 µM
[30] = second compound 3.16 µM, first compound 0.00316 µM
[31] = second compound 3.16 µM, first compound 0.00999 µM
[32] = second compound 3.16 µM, first compound 0.0999 µM
[33] = second compound 10 µM, first compound 0.000999 µM
[34] = second compound 10 µM, first compound 0.00316 µM
[35] = second compound 10 µM, first compound 0.00999 µM
[36] = second compound 10 µM, first compound 0.0999 µM
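Further: spheroids exposed to compounds for 7 days before readout.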
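Wherever viability, T/C is given: percent of vehicle DMSO control viability with 100% = untreated-like growth.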

IC50 (second compound 0.0316 µM): > 10000 nM | IC50 (second compound 0.1 µM): > 10000 nM | IC50 (second compound 0.316 µM): > 10000 nM | IC50 (second compound 1 µM): < 31.6 nM | IC50 (second compound 3.16 µM): < 31.6 nM | IC50 (second compound 10 µM): < 31.6 nM
SMILES: CC(C)n1c(=O)n(C)c2cnc3cc(F)c(-c4ccc(OCCCN5CCCCC5)nc4)cc3c21 + Cc1cnc(CNC(=O)c2c(=O)c3ccc(N4CCCN(C)CC4)nc3n3c2sc2ccccc23)cn1
viability, T/C [1]: 101% | viability, T/C (second compound 0.0316 µM, first compound 0.1 µM): 76.5% | viability, T/C [2]: 102% | viability, T/C (second compound 0.0316 µM, first compound 1 µM): 76.5% | viability, T/C (second compound 0.0316 µM, first compound 3.16 µM): 94% | viability, T/C (second compound 0.0316 µM, first compound 10 µM): 86.5% | viability, T/C [3]: 84.7% | viability, T/C (second compound 0.1 µM, first compound 0.1 µM): 80.2% | viability, T/C [4]: 81.3% | viability, T/C (second compound 0.1 µM, first compound 1 µM): 90.2% | viability, T/C (second compound 0.1 µM, first compound 3.16 µM): 83.7% | viability, T/C (second compound 0.1 µM, first compound 10 µM): 72.6% | viability, T/C [5]: 69.2% | viability, T/C (second compound 0.316 µM, first compound 0.1 µM): 61.9% | viability, T/C [6]: 70.9% | viability, T/C (second compound 0.316 µM, first compound 1 µM): 76.2% | viability, T/C (second compound 0.316 µM, first compound 3.16 µM): 78.5% | viability, T/C (second compound 0.316 µM, first compound 10 µM): 64.2% | viability, T/C [7]: 47.4% | viability, T/C (second compound 1 µM, first compound 0.1 µM): 48.3% | viability, T/C [8]: 49.9% | viability, T/C (second compound 1 µM, first compound 1 µM): 46.6% | viability, T/C (second compound 1 µM, first compound 3.16 µM): 56.8% | viability, T/C (second compound 1 µM, first compound 10 µM): 67.7% | viability, T/C [9]: 48.9% | viability, T/C (second compound 3.16 µM, first compound 0.1 µM): 45.8% | viability, T/C [10]: 51.6% | viability, T/C (second compound 3.16 µM, first compound 1 µM): 43.7% | viability, T/C (second compound 3.16 µM, first compound 3.16 µM): 53.5% | viability, T/C (second compound 3.16 µM, first compound 10 µM): 45.9% | viability, T/C [11]: 44.6% | viability, T/C (second compound 10 µM, first compound 0.1 µM): 33.5% | viability, T/C [12]: 39.9% | viability, T/C (second compound 10 µM, first compound 1 µM): 45% | viability, T/C (second compound 10 µM, first compound 3.16 µM): 40.6% | viability, T/C (second compound 10 µM, first compound 10 µM): 23.5%

IC50 (second compound 0.0316 µM): > 316 nM | IC50 (second compound 0.1 µM): > 316 nM | IC50 (second compound 0.316 µM): > 316 nM | IC50 (second compound 1 µM): 115 nM | IC50 (second compound 3.16 µM): 10.8 nM | IC50 (second compound 10 µM): < 0.999 nM
SMILES: CC[C@@]1(O)C(=O)OCc2c1cc1n(c2=O)Cc2cc3c(CN(C)C)c(O)ccc3nc2-1 + Cc1cnc(CNC(=O)c2c(=O)c3ccc(N4CCCN(C)CC4)nc3n3c2sc2ccccc23)cn1
viability, T/C [13]: 136% | viability, T/C [14]: 115% | viability, T/C [15]: 125% | viability, T/C [1]: 107% | viability, T/C [16]: 79.7% | viability, T/C [2]: 66.7% | viability, T/C [17]: 110% | viability, T/C [18]: 116% | viability, T/C [19]: 89.5% | viability, T/C [3]: 90.9% | viability, T/C [20]: 84.2% | viability, T/C [4]: 73.1% | viability, T/C [21]: 96.3% | viability, T/C [22]: 87.3% | viability, T/C [23]: 86.4% | viability, T/C [5]: 88.6% | viability, T/C [24]: 71% | viability, T/C [6]: 57.7% | viability, T/C [25]: 72.4% | viability, T/C [26]: 66.6% | viability, T/C [27]: 58.3% | viability, T/C [7]: 50.9% | viability, T/C [28]: 53.1% | viability, T/C [8]: 47.5% | viability, T/C [29]: 54.1% | viability, T/C [30]: 56.6% | viability, T/C [31]: 50.1% | viability, T/C [9]: 41.8% | viability, T/C [32]: 51.3% | viability, T/C [10]: 47.3% | viability, T/C [33]: 46.1% | viability, T/C [34]: 50.2% | viability, T/C [35]: 49.8% | viability, T/C [11]: 49.2% | viability, T/C [36]: 43.3% | viability, T/C [12]: 48.6%

IC50 (second compound 0.0316 µM): 36.9 nM | IC50 (second compound 0.1 µM): 49.8 nM | IC50 (second compound 0.316 µM): 24.8 nM | IC50 (second compound 1 µM): 8.72 nM | IC50 (second compound 3.16 µM): < 0.999 nM | IC50 (second compound 10 µM): < 0.999 nM
SMILES: CCc1c2c(nc3ccc(O)cc13)-c1cc3c(c(=O)n1C2)COC(=O)[C@]3(O)CC + Cc1cnc(CNC(=O)c2c(=O)c3ccc(N4CCCN(C)CC4)nc3n3c2sc2ccccc23)cn1
viability, T/C [13]: 117% | viability, T/C [14]: 96.3% | viability, T/C [15]: 57.4% | viability, T/C [1]: 56.4% | viability, T/C [16]: 43.5% | viability, T/C [2]: 27.2% | viability, T/C [17]: 88.4% | viability, T/C [18]: 79.4% | viability, T/C [19]: 57.3% | viability, T/C [3]: 59.4% | viability, T/C [20]: 46.5% | viability, T/C [4]: 27.9% | viability, T/C [21]: 81.8% | viability, T/C [22]: 67.9% | viability, T/C [23]: 55% | viability, T/C [5]: 51.5% | viability, T/C [24]: 38.5% | viability, T/C [6]: 28.8% | viability, T/C [25]: 66% | viability, T/C [26]: 58.1% | viability, T/C [27]: 44.4% | viability, T/C [7]: 42.9% | viability, T/C [28]: 35.9% | viability, T/C [8]: 25.1% | viability, T/C [29]: 46.6% | viability, T/C [30]: 41.5% | viability, T/C [31]: 37.5% | viability, T/C [9]: 40.9% | viability, T/C [32]: 33.4% | viability, T/C [10]: 19.4% | viability, T/C [33]: 46.6% | viability, T/C [34]: 38.4% | viability, T/C [35]: 38.9% | viability, T/C [11]: 40.9% | viability, T/C [36]: 32.6% | viability, T/C [12]: 11.1%
